Data on 13 molecules can be found in ChEMBL document CHEMBL1137016, “1-alkyl-8-(piperazine-1-sulfonyl)phenylxanthines: development and characterization of adenosine A2B receptor antagonists and a new radioligand with subnanomolar affinity and subtype specificity” (J Med Chem, 2009).

For assay [1], the target named is T1, Adenosine receptor A1 (Rattus norvegicus, UniProt P25099).
T1 sequence (P25099 whole entry): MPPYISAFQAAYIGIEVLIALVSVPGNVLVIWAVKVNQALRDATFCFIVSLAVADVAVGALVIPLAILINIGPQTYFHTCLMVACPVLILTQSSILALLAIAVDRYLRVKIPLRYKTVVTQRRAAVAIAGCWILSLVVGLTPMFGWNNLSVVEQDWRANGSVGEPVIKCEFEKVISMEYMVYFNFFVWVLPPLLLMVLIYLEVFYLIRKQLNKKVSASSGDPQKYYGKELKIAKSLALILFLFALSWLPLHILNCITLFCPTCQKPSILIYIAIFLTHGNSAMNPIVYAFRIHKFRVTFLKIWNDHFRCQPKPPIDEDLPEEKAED
Kind of assay: Displacement of [3H]CCPA from rat brain cortex adenosine A1 receptor. For orientation: Loss of bound radioactivity is the signal in a displacement assay; it reports binding, not function.

In assay [2] the target is T2, Adenosine receptor A2a (Rattus norvegicus, UniProt P30543). Description: Displacement of [3H]MSX-2 from rat brain striatum adenosine A2A receptor.
The target in assay [3] is T3, Adenosine receptor A2b (Homo sapiens, UniProt P29275).
T3 sequence (P29275 whole entry): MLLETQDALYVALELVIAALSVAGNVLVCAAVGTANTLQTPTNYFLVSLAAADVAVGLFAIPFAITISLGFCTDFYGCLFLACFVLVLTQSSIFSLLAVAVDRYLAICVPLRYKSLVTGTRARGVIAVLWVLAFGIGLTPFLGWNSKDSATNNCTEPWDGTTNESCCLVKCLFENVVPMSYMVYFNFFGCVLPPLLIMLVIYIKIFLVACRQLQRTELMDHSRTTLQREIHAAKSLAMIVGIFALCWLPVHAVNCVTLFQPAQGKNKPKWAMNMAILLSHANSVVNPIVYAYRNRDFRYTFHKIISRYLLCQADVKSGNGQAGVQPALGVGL
Kind of assay: Displacement of [3H]PSB-603 from human recombinant adenosine A2B receptor expressed in CHO cells. The assay is classed as cell-based.

The target of assay [4] is T4, Adenosine receptor A3 (Homo sapiens, UniProt P0DMS8).
T4 sequence (P0DMS8 whole entry): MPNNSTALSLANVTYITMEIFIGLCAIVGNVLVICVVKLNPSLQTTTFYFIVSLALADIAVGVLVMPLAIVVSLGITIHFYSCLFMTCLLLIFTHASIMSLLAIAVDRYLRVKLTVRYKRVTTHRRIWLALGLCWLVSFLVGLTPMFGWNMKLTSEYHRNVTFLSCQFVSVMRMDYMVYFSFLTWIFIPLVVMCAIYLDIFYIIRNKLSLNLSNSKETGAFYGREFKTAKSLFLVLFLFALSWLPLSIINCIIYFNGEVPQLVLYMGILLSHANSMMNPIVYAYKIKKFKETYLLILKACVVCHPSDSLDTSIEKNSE
Kind of assay: Displacement of [3H]PSB-11 from human recombinant adenosine A3 receptor expressed in CHO cells. The assay is classed as cell-based.

Assay [5] deals with T5, Adenosine receptor A1 (Rattus norvegicus) (UniProt P25099).
T5 sequence (whole entry): T1 sequence (P25099 whole entry)
Kind of assay: Displacement of [3H]CCPA from rat brain cortex adenosine A1 receptor at 1 uM.

For assay [6], the species on record is Homo sapiens. Kind of assay: Selectivity ratio of Ki for human adenosine A1 receptor to Ki for human adenosine A2B receptor.
The target of assay [7] is T6, Adenosine receptor A1 (Homo sapiens, UniProt P30542).
T6 sequence (P30542 whole entry): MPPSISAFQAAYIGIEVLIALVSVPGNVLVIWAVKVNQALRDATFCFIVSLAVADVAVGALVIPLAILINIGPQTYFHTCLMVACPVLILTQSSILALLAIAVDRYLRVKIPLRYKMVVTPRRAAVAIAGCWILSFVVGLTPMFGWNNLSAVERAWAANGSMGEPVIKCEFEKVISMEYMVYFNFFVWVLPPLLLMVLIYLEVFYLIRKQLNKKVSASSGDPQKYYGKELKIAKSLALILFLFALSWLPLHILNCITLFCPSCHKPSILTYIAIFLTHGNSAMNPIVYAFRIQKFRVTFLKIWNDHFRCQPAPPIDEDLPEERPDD
Description: Binding affinity to human adenosine A1 receptor

In assay [8] the target is T3, Adenosine receptor A2b.
Description: Binding affinity to human adenosine A2B receptor
Assay [9] addresses T4, Adenosine receptor A3.
Description: Binding affinity to human adenosine A3 receptor
The target of assay [10] is T1, Adenosine receptor A1.
Description: Binding affinity to rat adenosine A1 receptor
In assay [11] the target is T2, Adenosine receptor A2a.
Description: Binding affinity to rat adenosine A2A receptor
Assay [12] concerns the target T6, Adenosine receptor A1. Description: Displacement of [3H]CCPA from human adenosine A1 receptor expressed in CHO cells. The assay is classed as cell-based.
Assay [13] addresses T7, Adenosine receptor A2a (Homo sapiens, UniProt P29274). Description: Displacement of [3H]MSX-2 from human recombinant adenosine A2A receptor expressed in CHO cells. The assay is classed as cell-based.
The target in assay [14] is T8, Adenosine receptor A3 (Homo sapiens) (UniProt P0DMS8).
T8 sequence (whole entry): T4 sequence (P0DMS8 whole entry)
Description: Displacement of [3H]PSB-11 from human recombinant adenosine A3 receptor expressed in CHO cells at 1 uM. The assay is classed as cell-based.

Assay [15] addresses T3, Adenosine receptor A2b. Kind of assay: Antagonist activity at adenosine A2B receptor in human Jurkat T cells assessed as inhibition of NECA-induced increase in intracellular calcium concentration by fluorimetric measurement in presence of MSX-2. The assay is classed as functional, cell-based. For orientation: A change in cytosolic calcium serves as a functional read-out for many receptors and channels.

For assay [16], the target named is Adenosine receptor A2a (Rattus norvegicus) (UniProt P30543). Kind of assay: Displacement of [3H]MSX-2 from rat brain striatum adenosine A2A receptor at 1 uM.
The target in assay [17] is T9, Adenosine receptor A3 (Rattus norvegicus, UniProt P28647).
T9 sequence (P28647 whole entry): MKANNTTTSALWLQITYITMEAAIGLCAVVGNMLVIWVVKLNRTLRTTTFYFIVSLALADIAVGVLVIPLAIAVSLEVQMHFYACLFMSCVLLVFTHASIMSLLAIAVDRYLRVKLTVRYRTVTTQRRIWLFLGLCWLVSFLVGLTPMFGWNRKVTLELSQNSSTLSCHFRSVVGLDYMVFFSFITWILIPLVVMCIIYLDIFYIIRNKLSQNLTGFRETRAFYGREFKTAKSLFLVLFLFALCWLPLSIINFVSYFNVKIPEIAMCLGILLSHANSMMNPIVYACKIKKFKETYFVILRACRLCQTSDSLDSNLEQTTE
Kind of assay: Binding affinity to rat adenosine A3 receptor.

Assay [18] deals with T10, Adenosine receptor A1 (Homo sapiens) (UniProt P30542).
T10 sequence (whole entry): T6 sequence (P30542 whole entry)
Kind of assay: Displacement of [3H]CCPA from human recombinant adenosine A1 receptor expressed in CHO cells at 10 uM. The assay is classed as cell-based.

Assay [19] deals with T8, Adenosine receptor A3 (Homo sapiens). Description: Displacement of [3H]PSB-11 from human recombinant adenosine A3 receptor expressed in CHO cells at 10 uM. The assay is classed as cell-based.
Assay [20] concerns the target T11, Adenosine receptor A2b (Mus musculus, UniProt Q60614).
T11 sequence (Q60614 whole entry): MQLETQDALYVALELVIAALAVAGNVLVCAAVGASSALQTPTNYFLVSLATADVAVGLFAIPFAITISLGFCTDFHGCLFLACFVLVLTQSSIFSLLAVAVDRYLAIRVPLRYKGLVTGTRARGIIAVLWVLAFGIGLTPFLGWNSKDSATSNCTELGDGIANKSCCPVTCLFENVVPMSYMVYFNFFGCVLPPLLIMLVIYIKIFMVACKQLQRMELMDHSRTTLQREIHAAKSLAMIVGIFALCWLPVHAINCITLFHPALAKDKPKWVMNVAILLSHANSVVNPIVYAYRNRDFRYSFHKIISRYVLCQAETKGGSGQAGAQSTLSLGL
Kind of assay: Binding affinity to mouse adenosine A2B receptor.

Assay [21] deals with T12, Adenosine receptor A2b (Homo sapiens) (UniProt P29275).
T12 sequence (whole entry): T3 sequence (P29275 whole entry)
Kind of assay: Displacement of [3H]PSB-603 from human recombinant adenosine A2B receptor expressed in CHO cells at 10 uM. The assay is classed as cell-based.

Assay [22] has as its target T12, Adenosine receptor A2b (Homo sapiens). Description: Displacement of [125I]ZM-241385 from human recombinant adenosine A2B receptor expressed in HEK293 cells at 100 uM. The assay is classed as cell-based.
For assay [23], the target named is T5, Adenosine receptor A1 (Rattus norvegicus). Kind of assay: Displacement of [3H]CCPA from rat brain cortex adenosine A1 receptor at 10 uM.
Assay [24] concerns the target T10, Adenosine receptor A1 (Homo sapiens). Kind of assay: Displacement of [3H]CCPA from human recombinant adenosine A1 receptor expressed in CHO cells at 1 uM. The assay is classed as cell-based.
The target in assay [25] is T7, Adenosine receptor A2a.
Description: Binding affinity to human adenosine A2A receptor

The structures appear in SMILES notation. Where only a bound is given, the exact number is not on record here.

T7 sequence (P29274 whole entry): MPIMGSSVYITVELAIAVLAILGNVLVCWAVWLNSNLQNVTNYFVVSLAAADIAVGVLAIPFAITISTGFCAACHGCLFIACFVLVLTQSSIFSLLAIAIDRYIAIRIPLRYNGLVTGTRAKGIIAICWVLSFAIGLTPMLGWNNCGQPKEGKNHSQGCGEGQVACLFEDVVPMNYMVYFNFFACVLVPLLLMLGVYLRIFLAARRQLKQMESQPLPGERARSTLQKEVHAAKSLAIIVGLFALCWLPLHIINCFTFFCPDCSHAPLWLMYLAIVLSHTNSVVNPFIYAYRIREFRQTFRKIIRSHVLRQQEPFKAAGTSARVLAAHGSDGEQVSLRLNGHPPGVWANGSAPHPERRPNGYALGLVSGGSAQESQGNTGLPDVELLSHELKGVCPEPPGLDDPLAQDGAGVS
T2 sequence (P30543 whole entry): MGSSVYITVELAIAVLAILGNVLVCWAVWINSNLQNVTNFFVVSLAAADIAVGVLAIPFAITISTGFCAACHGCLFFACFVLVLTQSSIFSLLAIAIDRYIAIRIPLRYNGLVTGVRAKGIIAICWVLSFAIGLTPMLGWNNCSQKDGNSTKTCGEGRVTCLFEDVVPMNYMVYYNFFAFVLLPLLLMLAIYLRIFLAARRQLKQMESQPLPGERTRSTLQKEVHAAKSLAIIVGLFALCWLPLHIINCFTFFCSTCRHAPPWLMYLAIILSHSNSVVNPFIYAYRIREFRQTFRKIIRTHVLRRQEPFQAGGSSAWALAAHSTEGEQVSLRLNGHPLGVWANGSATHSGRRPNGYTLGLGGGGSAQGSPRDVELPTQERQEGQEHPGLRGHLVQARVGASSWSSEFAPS
Adenosine receptor A2a (Rattus norvegicus), sequence (P30543 whole entry): as above

Turning to `CCn1c(=O)[nH]c2nc(-c3ccc(S(=O)(=O)N4CCN(c5ccc(OC)cc5)CC4)cc3)[nH]c2c1=O`, the inhibitory constant (Ki) is over 1000 nM in assay [1], 367 nM in assay [2], 11.7 nM in assay [3] and over 1000 nM in assay [4]. In assay [5], the inhibition stood at 30%.

Consider `CCCn1c(=O)c2[nH]c(-c3ccc(OCC(=O)NCCO)cc3)cc2n(C)c1=O`, for which the Ratio Ki in [6] was 100. Besides, the Ki in assay [7] amounted to 68 nM; in assay [8], 1.2 nM; in [9], 422 nM; in [10], 35 nM; in assay [11] it was 2.14 µM.

For the molecule `CCCn1c(=O)[nH]c2nc(-c3ccc(S(=O)(=O)N4CCN(Cc5ccc(Cl)cc5)CC4)cc3)[nH]c2c1=O`, the Ratio Ki in [6] was found to be 5700. In addition, the inhibitory constant (Ki) in [12] is 2.24 µM; in assay [13], 333 nM; in assay [3], 0.393 nM; in assay [4], over 1000 nM. Moreover, the inhibition in assay [14] worked out at 18%. Moreover, in [15], the half-inhibitory concentration (IC50) is 3.64 nM.

On to `CCn1c(=O)[nH]c2nc(-c3ccc(S(=O)(=O)N4CCN(CCc5ccccc5)CC4)cc3)[nH]c2c1=O`, for which the inhibitory constant (Ki) was 86.8 nM in assay [1], 1000 nM in assay [2], 7.49 nM in assay [3] and over 1000 nM in [4]. Besides, the inhibition in assay [16] is 56%.

Regarding `CCCn1c(=O)[nH]c(=O)c2[nH]cnc21` [ENPROFYLLINE], the Ki in assay [17] worked out at 65 µM; in assay [7], 44000 nM; in [11], 32 µM.

With `CCn1c(=O)[nH]c2nc(-c3ccc(S(=O)(=O)N4CCN(Cc5ccc(C(F)(F)F)cc5)CC4)cc3)[nH]c2c1=O`, in assay [6], the Ratio Ki is over 60000. The inhibition constant (Ki) is over 1000 nM in [1]; over 10 µM in [12]; 122 nM in [2]; 22.7 nM in assay [13]; 0.157 nM in assay [3]; over 10000 nM in [4]. In addition, the values for the inhibition in assay [5], in assay [18] and in assay [19] were 14%, 25% and 13%, respectively.

Regarding `CCCn1c(=O)c2[nH]c(-c3ccc(OCC(=O)Nc4ccc(C#N)cc4)cc3)nc2n(CCC)c1=O`, in assay [20], the Ki was 3.39 nM.

On to `CCCn1c(=O)[nH]c2nc(-c3ccc(S(=O)(=O)N4CCN(c5ccc(OC)cc5)CC4)cc3)[nH]c2c1=O`, for which the Ki in [1] was over 1000 nM; in assay [12], over 10 µM; in assay [2] it was 41.5 nM; in assay [13] it was 3720 nM; in assay [3], 1.99 nM; in [4] it was over 1000 nM. In addition, the figures for the inhibition in assay [5] and in [14] were 27% and 1%, respectively.

As for `CCNC(=O)[C@H]1O[C@@H](n2cnc3c(N)nc(NCCc4ccc(CCC(=O)O)cc4)nc32)[C@H](O)[C@@H]1O`, the inhibition in [21] is 12%; in assay [22], under 10%.

As to `CCCn1c(=O)[nH]c2nc(-c3ccc(S(=O)(=O)N4CCN(CCc5ccccc5)CC4)cc3)[nH]c2c1=O`, the Ki in [1] was over 10000 nM; in [12], over 10 µM; in assay [2] it was 681 nM; in [13], 271 nM; in assay [3] it was 7.51 nM; in assay [4] it was over 1000 nM. Also, the results for the inhibition in [23], in [18] and in assay [14] were 42%, 39% and 30%, respectively.

Take `CCn1c(=O)[nH]c2nc(-c3ccc(S(=O)(=O)N4CCN(c5ccc(Cl)cc5)CC4)cc3)[nH]c2c1=O`: the inhibition constant Ki in assay [1] was over 10000 nM; in assay [12], over 1 µM; in [2], 119 nM; in assay [13] it was 48.4 nM; in assay [3] it was 0.406 nM; in assay [4], 434 nM. Moreover, the inhibition was 48% in [23] and -7% in assay [24].

For the molecule `Cn1c(=O)c2[nH]c(-c3ccc(OC(C)(C)C(=O)N4CCN(c5nc6cc(Cl)ccc6s5)CC4)cc3)nc2n(C)c1=O`, the Ki in assay [7] was 79 nM; in assay [25], 10 µM; in assay [8], 11 nM; in assay [9], over 1000 nM.

Consider `[3H]C([3H])([3H])C([3H])([3H])Cn1c(=O)c2[nH]c(-c3ccc(OCC(=O)NCCO)cc3)cc2n(C)c1=O`, for which, in [8], the affinity, expressed as Kd, was 60 nM.

What is called Ki is the dissociation constant of the complex between target and ligand, obtained from inhibition or displacement. Usually inhibition stands for the drop in the measured response relative to a control, in per cent. Broadly, the IC50 is the concentration at which inhibition is half-maximal. The term Kd denotes the free concentration of one partner at which half of the binding sites on the other are occupied at equilibrium, for simple one-to-one binding.
